Measured values taken from patent publication US12011444B2, “N-substituted indole derivatives as PGE2 receptor modulators” (Idorsia Pharmaceuticals Ltd, priority 2015, dated 2024).

Columns and labels:
EP2 = EP2 (Homo sapiens (Human), UniProt P43116);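 further: antagonism of PGE2-stimulated cAMP accumulation in SF295 human glioblastoma cells with endogenous EP2, cAMP read by HTRF, expressed relative to DMSO control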
EP4 = EP4 (Homo sapiens (Human), UniProt P35408); assay: hEP4 cAMP assay (BT549 breast cancer cells, HTRF cAMP); type: cell-based; details: antagonistic activity; mean values where measured multiple times
EP4, sequence (P35408 whole entry): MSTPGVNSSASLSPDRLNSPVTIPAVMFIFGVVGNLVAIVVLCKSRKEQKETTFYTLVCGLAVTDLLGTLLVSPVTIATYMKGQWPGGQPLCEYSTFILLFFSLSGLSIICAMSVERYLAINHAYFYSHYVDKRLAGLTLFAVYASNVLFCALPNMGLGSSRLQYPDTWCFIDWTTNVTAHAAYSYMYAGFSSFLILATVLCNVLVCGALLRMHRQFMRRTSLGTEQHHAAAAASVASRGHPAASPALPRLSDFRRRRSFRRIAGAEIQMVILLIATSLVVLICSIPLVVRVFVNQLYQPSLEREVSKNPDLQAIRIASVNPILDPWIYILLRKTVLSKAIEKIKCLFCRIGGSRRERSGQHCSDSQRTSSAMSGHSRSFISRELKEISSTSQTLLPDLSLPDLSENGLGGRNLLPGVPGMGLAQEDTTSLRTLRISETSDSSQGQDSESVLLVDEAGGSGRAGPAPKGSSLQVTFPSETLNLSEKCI
Description: Plate is pre-incubated 45 minutes at room temperature. Subsequently, 2.5 microliters of PGE2 (final conc. 6 nM) are transferred into the assay plate. Plate is incubated 30 minutes at room temperature.

EP2, sequence (P43116 whole entry): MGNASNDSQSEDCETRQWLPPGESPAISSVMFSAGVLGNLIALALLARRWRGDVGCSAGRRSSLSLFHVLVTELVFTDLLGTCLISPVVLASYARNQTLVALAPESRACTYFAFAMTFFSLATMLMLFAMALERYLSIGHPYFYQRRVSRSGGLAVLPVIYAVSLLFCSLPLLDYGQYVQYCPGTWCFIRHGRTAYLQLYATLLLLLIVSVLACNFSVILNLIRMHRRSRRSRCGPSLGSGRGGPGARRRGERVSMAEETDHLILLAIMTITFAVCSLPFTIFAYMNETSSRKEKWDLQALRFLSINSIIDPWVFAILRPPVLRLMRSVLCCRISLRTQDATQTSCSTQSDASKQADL

Compound	IC50 (EP2) [µM]	IC50 (EP4) [µM]
CCCOc1cc(-c2cc(NCCn3c(C)cc4c(OC)cc(F)c(F)c43)ncn2)cc(F)c1C(=O)O [compound 637]	0.025	0.054
Cc1nc(-c2ccc(-c3cc(NCCn4c(C)cc5c(C)cc(F)cc54)ncn3)cc2)co1 [compound 565]	0.077	0.434
CCCCOc1cc(-c2cc(NCCn3c(C)cc4c(OC)cc(F)cc43)ncn2)sc1C(=O)O [compound 672]	0.001	0.003
COc1cc(-c2cc(NCCn3c(C)cc4c(OC)ccc(F)c43)ncn2)cc(C)c1C(=O)O [compound 406]	0.047	0.266
CCCOc1cc(-c2cc(NCCn3c(C)cc4c(OC)cccc43)ncn2)cc(F)c1C(=O)O [compound 498]	0.02	0.609
Cc1cc2c(Cl)ccc(Cl)c2n1CCNc1cc(-c2ccc(C(=O)O)c(SC(C)C)c2)ncn1 [compound 424]	0.031	0.257
COc1cc(F)c(F)c2c1cc(C)n2CCNc1cc(-c2ccc(-c3ccno3)cc2)ncn1 [compound 745, [2-(6,7-Difluoro-4-methoxy-2-methyl-indol-1-yl)-ethyl]-[6-(4-isoxazol-5-yl-phenyl)-pyrimidin-4-yl]-amine]	0.025	0.84
COc1cc(F)c(F)c2c1cc(C)n2CCNc1cc(-c2cc(C(F)(F)F)c(C(=O)O)s2)ncn1 [compound 525]	0.038	0.014
COc1cc(F)cc2c1cc(C)n2CCNc1cc(-c2cc(OC(C)C)c(C(=O)O)s2)ncn1 [compound 676]	0.003	0.009
COc1cc(F)c(F)c2c1cc(C)n2CCNc1cc(-c2ccc(C(=O)O)c(OC(F)(F)F)c2)ncn1 [compound 636]	0.068	0.255
COc1cc(F)cc2c1cc(C)n2CCNc1cc(-c2cc(Cl)c(C(=O)O)c(OCC(F)(F)F)c2)ncn1 [compound 721]	0.018	0.06
COc1ccc(F)c2c1cc(C)n2CCNc1cc(-c2ccc(C(=O)O)c(CC(C)C)c2)ncn1 [compound 537]	0.022	0.081
CCc1cc(-c2cc(NCCn3c(C)cc4c(OC)ccc(Cl)c43)ncn2)cc(F)c1C(=O)O [compound 429]	0.025	0.775
CCOc1cc(-c2cc(NCCn3c(C)cc4c(Br)cccc43)ncn2)ccc1C(=O)O [Example 780, 4-{6-[2-(4-Bromo-2-methyl-indol-1-yl)-ethylamino]-pyrimidin-4-yl}-2-ethoxy-benzoic acid]	0.006	0.826
Cc1cc(F)cc2c1cc(C)n2CCNc1cc(-c2ccc(-c3csc(C(=O)O)n3)cc2)ncn1 [compound 544]	0.047	0.178
CCOc1cc(-c2cc(NCCn3c(C)cc4c(C)cc(F)c(F)c43)ncn2)cc(F)c1-c1nnn[nH]1 [compound 657]	0.071	0.189
CCCc1cc(-c2cc(NCCn3c(C)cc4cc(C)cc(F)c43)ncn2)cc(Cl)c1C(=O)O [compound 414]	0.035	0.199
CCOc1cc(-c2cc(NCCn3c(Cl)cc4c(OC)ccc(Cl)c43)ncn2)ccc1C(=O)O [Example 775, 4-{6-[2-(2,7-Dichloro-4-methoxy-indol-1-yl)-ethylamino]-pyrimidin-4-yl}-2-ethoxy-benzoic acid]	0.01	0.206
COc1cccc2c1cc(C)n2CCNc1cc(-c2ccc(C(=O)O)c(OC(F)F)c2)ncn1 [compound 598]	0.002	0.336
COc1cccc2c1cc(C)n2CCNc1cc(-c2ccc(-c3csc(CC(N)=O)n3)cc2)ncn1 [Example 785, 2-[4-(4-{6-[2-(4-Methoxy-2-methyl-indol-1-yl)-ethylamino]-pyrimidin-4-yl}-phenyl)-thiazol-2-yl]-acetamide]	0.013	0.906
COc1c(F)cc(Cl)c2c1cc(C)n2CCNc1cc(-c2cc(F)c(C(=O)O)c(SC)c2)ncn1 [compound 509]	0.11	0.684
